Results: article PMC11842024, “Reversible male contraception by targeted inhibition of serine/threonine kinase 33” (Science (New York, N.Y.), 2024)
Read-outs that look alike come from different tables or passages of the source.

Assays:
[1] = Metabolic stability assay in liver microsomes (MLM); assay type: in vitro ADME, mouse; details: for half-life at 2 µM: mouse, liver microsomes
Experimental: Metabolic stability assay in liver microsomes. The stabilities of CDD-2110, CDD-2211, CDD-2212, CDD-2807, and CDD-3348 in liver microsomes with/without Uridine Diphosphate Glucuronic Acid (UDP-GA, a cofactor of UDP-glucuronosyltransferases) were performed and half-life was calculated as previously reported (36). Briefly, each CDD compound (2.0 μM) was incubated in the mouse or human liver microsomes (0.5 mg protein/mL) at 37°C in 1× PBS fortified with NADPH (1.0 mM) and with/without UDP-GA (2.5 mM). Alamethicin (25 µg/mL) as a pore forming agent was used for the glucuronidation (Table S2A). The samples were collected at specific time-points 0, 30, and 60 min in duplicate. The reactions were terminated by adding equivalent volume of ice-cold methanol (CH3OH) and vortexed. After centrifugation at 15000 g for 10 min, 3.0 μL of the supernatant was analyzed by Thermo TSQ Quantis MS coupled with a Thermo Vanquish UHPLC (San Jose, CA) equipped with a Luna C18 column (1 mm × 50 mm, 1.6 µm, Phenomenex, Torrance, CA). The column temperature was maintained at 40°C. CDD-2807 was monitored under the selected reaction monitoring (SRM) mode coupled with a positive electrospray ionization (ESI) source. The SRM ion pairs were 447→321 for CDD-2807.

[2] = target: STK33 (Homo sapiens, UniProt Q9BYT3); assay: LanthaScreen binding assay (ThermoFisher SelectScreen); parameters: purchased SelectScreen Services (ThermoFisher)
Excerpt: In vitro biochemical assays. Several small molecule assays were outsourced to SelectScreen Services (ThermoFisher) for STK33 and for off-target kinases (data sets are available on demand).
These assays are LanthaScreen (binding assay) and Z’-LYTE (activity assay). Dose-responses were done with at least 5 different concentrations in duplicates, and parameters were optimized by calculations described below and provided with standard errors.
Calculation of Kd values for kinase inhibitors that bind to the ATP pocket of a kinase from LanthaScreen binding data. DynaFit (71) was used to fit complex equilibria where a tracer is displaced by a dilution series of a kinase inhibitor. This method relies on the concentration of inhibitor, as well as the concentration of kinase and tracer, and Kd of the tracer. The latter three parameters are tabulated by ThermoFisher for each kinase in the LanthaScreen assay panel. […]
Since Kd and Ki values are defined the same way, in other words, Kd = [E] [I] / [EI] = Ki, Kd and Ki values can be compared. […]

[3] = tested on: male mice; assay: Histological analysis of testis and epididymis; assay type: in vivo
Excerpt: fig. S24. Histological analysis of testis and epididymis segments (caput & corpus) from control and CDD-2807-treated male mice from protocol 1. Bouin’s fixed, 4 µm-cross sections of the testis (A) and horizontal sections of the epididymis (B) were stained with PAS-hematoxylin.
All 12 stages of spermatogenesis are represented in both control and CDD-2807-treated mice and show normal tissue morphology and acrosome development. Epididymis from the control and CDD-2807-treated mice were similar histologically. Scale bars are 60 µm.
(1 picture or pasted object on this page, not shown here) […]
fig. S25. Histological analysis of testis and epididymis segments (caput & corpus) from control and CDD-2807-treated male mice from protocol 2. Bouin’s fixed, 4 µm-cross sections of the testis (A) and longitudinal sections of the epididymis (B) were stained with PAS-hematoxylin. All 12 stages of spermatogenesis are represented in both control and CDD-2807-treated mice, although it was difficult to find all stages in the CDD-2807-treated mice. Epididymis from the control and CDD-2807-treated mice were very different histologically, control mice had normal sperm cells, while CDD-2807 mice had occasional round spermatids present in the epididymis. Scale bars are 60 µm.

[4] = tested on: male mice; assay: Computer assisted sperm analysis (CASA) of cauda epididymis sperm; assay type: in vivo
Excerpt: To further understand the cause of the contraceptive effect of CDD-2807, we analyzed sperm from the cauda epididymis of each mouse using computer assisted sperm analysis (CASA). Although sperm counts were lower in the controls in protocol 1 mice versus CDD-2807–treated mice (fig. S23C), sperm motility (fig. S23D), progressive sperm (fig. S23E), and hyperactivated sperm (fig. S23F) were reduced in the CDD-2807–treated mice. In protocol 2, sperm counts (Fig. 4D), sperm motility (Fig. 4E), progressive sperm (Fig. 4F), and hyperactivated sperm (Fig. 4G) were reduced in the CDD-2807-treated mice versus control mice. […] Thus, low dose (CDD-2807 at 15 mg kg^−1 twice per day for 45 days) or reduced duration (CDD-2807 at 50 mg kg^−1 day^−1 for 7 days) appears to cause a functional defect in motility, whereas high dose (CDD-2807 at 50 mg kg^−1 day^−1 for 63 days) causes both functional and morphologic defects, consistent with the Stk33 knockout and likely a direct role of STK33 in phosphorylation of fibrous sheath proteins A-kinase anchoring protein 3 (AKAP3) and AKAP4 and/or other STK33 targets ([48]).

[5] = 50 mg/kg/day for 7 days (Protocol 3)
[6] = protocol 2 at 63 days, vs control

Chain of STK33 (Q9BYT3 whole entry): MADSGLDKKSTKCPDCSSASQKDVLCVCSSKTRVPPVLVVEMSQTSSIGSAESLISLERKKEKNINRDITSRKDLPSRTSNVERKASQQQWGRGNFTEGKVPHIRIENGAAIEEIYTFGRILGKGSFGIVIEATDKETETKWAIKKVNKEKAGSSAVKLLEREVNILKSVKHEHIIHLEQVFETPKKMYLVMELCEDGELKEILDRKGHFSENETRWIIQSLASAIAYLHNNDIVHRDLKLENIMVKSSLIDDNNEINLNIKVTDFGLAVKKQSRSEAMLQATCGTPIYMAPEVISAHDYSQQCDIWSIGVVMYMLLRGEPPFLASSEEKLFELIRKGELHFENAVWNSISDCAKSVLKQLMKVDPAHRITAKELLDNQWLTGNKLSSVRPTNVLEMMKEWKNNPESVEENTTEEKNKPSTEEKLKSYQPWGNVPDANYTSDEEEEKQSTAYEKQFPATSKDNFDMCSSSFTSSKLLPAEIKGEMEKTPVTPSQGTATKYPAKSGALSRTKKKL

O=C(c1ccc2[nH]nc(C#Cc3ccccc3-c3ccccc3)c2c1)N1CC2(CCCNC2)C1 [CDD-2807]
Metabolic stability MLM, t1/2 ([1]; 2.0 µM, 0.5 mg protein/mL, NADPH, data >60 min is an extrapolated estimate): > 1 h | Metabolic stability in MLM ([1]; Phase I metabolism): ~ 1 hour | Metabolic stability in MLM ([1]; Phases I and II metabolism): ~ 50 minutes | half-life at 2 µM ([1]; 2.0 µM, 0.5 mg protein/mL, NADPH, data >60 min is an extrapolated estimate, read-out: Metabolic stability MLM, t1/2): 1.18 h | half-life at 2 µM ([1]; NADPH with UDP-GA (2.5 mM), alamethicin, read-out: MLM, t1/2, liver microsomes with glucuronidation): 0.833 h | Kd [2]: 0.02 nM | histology of testes and epididymis ([3]; protocol 1): no detectable defects | histology of epididymis ([3]; protocol 2): round spermatids in the epididymis | progressive sperm [4, 5]: statistically significant reductions | sperm counts [4, 5]: did not alter | sperm hyperactivation [4, 5]: statistically significant reductions | sperm motility [4, 5]: statistically significant reductions | hyperactivated sperm ([4]; protocol 1, day 45, vs control): reduced | progressive sperm ([4]; protocol 1, day 45, vs control): reduced | sperm motility ([4]; protocol 1, day 45, vs control): reduced | hyperactivated sperm [4, 6]: significant decrease | progressive sperm [4, 6]: significant decrease | sperm counts [4, 6]: significant decrease | sperm motility [4, 6]: significant decrease
